The subject of the data set is TTR. Description: TTR editing in primary cyno hepatocytes electroporated with Spy Cas9 protein and dgRNAs (Tables 10, 11). Type of data set: cell-based, cynomolgus monkey. The following applies: Table 10; primary cyno hepatocytes electroporated with Spy Cas9 protein (RNP) and dgRNAs. The procedure:
Primary liver hepatocytes. Primary human liver hepatocytes (PHH) and primary cynomolgus liver hepatocytes (PCH) (Gibco) were cultured per the manufacturer's protocol (Invitrogen, protocol 11.28.2012). In brief, the cells were thawed and resuspended in hepatocyte thawing medium with supplements (Gibco, Cat. CM7000) followed by centrifugation at 100 g for 10 minutes for human and 80 g for 4 minutes for cyno. The supernatant was discarded and the pelleted cells resuspended in hepatocyte plating medium plus supplement pack (Invitrogen, Cat. A1217601 and CM3000). Cells were counted and plated on Bio-coat collagen I coated 96-well plates (ThermoFisher, Cat. 877272) at a density of 33,000 cells/well for human or 60,000 cells/well for cyno (or 65,000 cells/well when assaying effects on TTR protein, described further below). Plated cells were allowed to settle and adhere for 6 or 24 hours in a tissue culture incubator at 37° C. and 5% CO2 atmosphere. After incubation cells were checked for monolayer formation and media was replaced with hepatocyte culture medium with serum-free supplement pack (Invitrogen, Cat. A1217601 and CM4000).
[…] formation was performed prior to electroporation or transfection of Spy Cas9 protein loaded with guide RNAs (RNPs) onto cells. For dual guide (dgRNAs), individual crRNA and trRNA was pre-annealed by mixing equivalent amounts of reagent and incubating at 95° C. for 2 min and cooling to room temperature. Single guide (sgRNAs) were boiled at 95° C. for 2 min and cooling to room temperature. The boiled dgRNA or sgRNA was incubated with Spy Cas9 protein in Optimem for 10 minutes at room temperature to form a ribonucleoprotein (RNP) complex.
For RNP electroporation into primary human and cyno hepatocytes, the cells are thawed and resuspended in Lonza electroporation Primary Cell P3 buffer at a concentration of 2500 cells per μL for human hepatocytes and 3500 cells per μL for cyno hepatocytes. A volume of 20 μL of resuspended cells and 5 μL of RNP are mixed together per guide. 20 μL of the mixture is placed into a Lonza electroporation plate. The cells were electroporated using the Lonza nucleofector with the preset protocol EX-147. Post electroporation, the cells are transferred into a Biocoat plate containing pre-warmed maintenance media and placed in a tissue culture incubator at 37° C. and 5% CO2.
Transfected cells were harvested post-transfection at 24, 48, or 72 hours. The genomic DNA was extracted from each well of a 96-well plate using 50 μL/well BuccalAmp DNA Extraction solution (Epicentre, Cat. QE09050) per manufacturer's protocol. All DNA samples were subjected to PCR and subsequent NGS analyses, as described herein.
To quantitatively determine the efficiency of editing at the target location in the genome, sequencing was utilized to identify the presence of insertions and deletions introduced by gene editing.
Primers were designed around the target site within the gene of interest (e.g. TTR), and the genomic area of interest was amplified.
Additional PCR was performed per the manufacturer's protocols (Illumina) to add chemistry for sequencing. The amplicons were sequenced on an Illumina MiSeq instrument. The reads were aligned to a reference genome (e.g., the human reference genome (hg38), the cynomologus reference genome (mf5), the rat reference genome (rn6), or the mouse reference genome (mm10)) after eliminating those having low quality scores. The resulting files containing the reads were mapped to the reference genome (BAM files), where reads that overlapped the target region of interest were selected and the number of wild type reads versus the number of reads which contain an insertion, substitution, or deletion was calculated.
The editing percentage (e.g., the “editing efficiency” or “percent editing” or “indel frequency”) is defined as the total number of sequence reads with insertions/deletions (“indels”) or substitutions over the total number of sequence reads, including wild type. […]
As for “GCUGCAUGGGCUCACAACUG (tested as dual guide RNA, chemistry not given here) [CR003361]”, the “Avg % Deletion” value is recorded as 0.08%, the “Avg % Edit” value worked out at 4.53% and the “Avg % Insert” value was found to be 4.46%.
As to “GGGAUUGGUGACGACAGCCG (tested as dual guide RNA, chemistry not given here) [CR003390]”, the “Avg % Deletion” value is 0.39%, the “Avg % Edit” value is recorded as 16.87% and the “Avg % Insert” value is given as 16.49%.
For “GGCUGUCGUCACCAAUCCCA (tested as dual guide RNA, chemistry not given here) [CR003391]”, the “Avg % Deletion” value was determined as 0.71%, the “Avg % Edit” value was 36.44% and the “Avg % Insert” value was 35.73%.
The corresponding values for “AUACCAGUCCAGCAAGGCAG (tested as dual guide RNA, chemistry not given here) [CR003338]” are 0.05%, 44.94% and 44.89%.
On to “AAGUGCCUUCCAGUAAGAUU (tested as dual guide RNA, chemistry not given here) [CR003368]”, for which the “Avg % Deletion” value is given as 0.26%, the “Avg % Edit” value amounted to 18.56% and the “Avg % Insert” value worked out at 18.30%.
The matching figures for “AGUGAGUCUGGAGAGCUGCA (tested as dual guide RNA, chemistry not given here) [CR003359]”: 5.51%, 46.17% and 40.66%.
The corresponding values for “UUUGACCAUCAGAGGACACU (tested as dual guide RNA, chemistry not given here) [CR003344]” are 1.91%, 35.72% and 33.81%.
The corresponding values for “GUCACAGAAACACUCACCGU (tested as dual guide RNA, chemistry not given here) [CR005301]” are 0.42%, 46.76% and 46.34%.
“ACUGAGGAGGAAUUUGUAGA (tested as dual guide RNA, chemistry not given here) [CR003363]”: the “Avg % Deletion” value is on record as 2.39%, the “Avg % Edit” value was 15.64% and the “Avg % Insert” value came to 13.24%.
Turning to “GGAGUAGGGGCUCAGCAGGG (tested as dual guide RNA, chemistry not given here) [CR003382]”, the “Avg % Deletion” value is 2.33%, the “Avg % Edit” value turned out to be 10.86% and the “Avg % Insert” value amounted to 8.54%.
For the sequence “UCUAGAACUUUGACCAUCAG (tested as dual guide RNA, chemistry not given here) [CR003345]”, the “Avg % Deletion” value amounted to 22.19%, the “Avg % Edit” value is reported as 52.92% and the “Avg % Insert” value stood at 30.74%.
The matching figures for “CCUCCUCUGCCUUGCUGGAC (tested as dual guide RNA, chemistry not given here) [CR003336]”: 0.07%, 8.18% and 8.10%.
The corresponding values for “CUGAGGAGGAAUUUGUAGAA (tested as dual guide RNA, chemistry not given here) [CR003364]” are 5.35%, 19.62% and 14.27%.
As for “UGUAGAAGGGAUAUACAAAG (tested as dual guide RNA, chemistry not given here) [CR003365]”, the “Avg % Deletion” value is given as 0.97%, the “Avg % Edit” value is listed as 10.31% and the “Avg % Insert” value is recorded as 9.33%.
The matching figures for “AUUGGUGACGACAGCCGUGG (tested as dual guide RNA, chemistry not given here) [CR003389]”: 0.78%, 18.83% and 18.05%.
The matching figures for “GACGACAGCCGUGGUGGAAU (tested as dual guide RNA, chemistry not given here) [CR003388]”: 0.22%, 6.81% and 6.59%.
The matching figures for “GUGAGUCUGGAGAGCUGCAU (tested as dual guide RNA, chemistry not given here) [CR003360]”: 0.42%, 29.47% and 29.05%.
On to “AAAGUUCUAGAUGCUGUCCG (tested as dual guide RNA, chemistry not given here) [CR003346]”, for which the “Avg % Deletion” value was found to be 0.09%, the “Avg % Edit” value worked out at 1.91% and the “Avg % Insert” value is listed as 1.82%.
As to “CCGUGGUGGAAUAGGAGUAG (tested as dual guide RNA, chemistry not given here) [CR003386]”, the “Avg % Deletion” value is recorded as 2.03%, the “Avg % Edit” value was 5.54% and the “Avg % Insert” value turned out to be 3.51%.
The corresponding values for “UACUCACCUCUGCAUGCUCA (tested as dual guide RNA, chemistry not given here) [CR003372]” are 0.32%, 2.15% and 1.83%.
The matching figures for “AAAUAGACACCAAAUCUUAC (tested as dual guide RNA, chemistry not given here) [CR003366]”: 0.90%, 18.52% and 17.62%.
The corresponding values for “AGUCCCUCAUUCCUUGGGAU (tested as dual guide RNA, chemistry not given here) [CR003392]” are 0.38%, 7.02% and 6.63%.
“CAUUGAUGGCAGGACUGCCU (tested as dual guide RNA, chemistry not given here) [CR003347]”: the “Avg % Deletion” value is recorded as 0.25%, the “Avg % Edit” value is recorded as 72.41% and the “Avg % Insert” value worked out at 72.15%.
On to “GCAUGGGCUCACAACUGAGG (tested as dual guide RNA, chemistry not given here) [CR003362]”, for which the “Avg % Deletion” value is 0.22%, the “Avg % Edit” value is on record as 4.59% and the “Avg % Insert” value is listed as 4.36%.
The corresponding values for “CCCCUACUCCUAUUCCACCA (tested as dual guide RNA, chemistry not given here) [CR003385]” are 4.12%, 30.96% and 26.84%.
As for “GAAAGGCUGCUGAUGACACC (tested as dual guide RNA, chemistry not given here) [CR003352]”, the “Avg % Deletion” value was 0.09%, the “Avg % Edit” value is given as 1.25% and the “Avg % Insert” value is recorded as 1.16%.
“AUAGGAGUAGGGGCUCAGCA (tested as dual guide RNA, chemistry not given here) [CR003383]”: the “Avg % Deletion” value came out at 4.55%, the “Avg % Edit” value was found to be 8.86% and the “Avg % Insert” value came to 4.31%.
The matching figures for “UGAAUCCAAGUGUCCUCUGA (tested as dual guide RNA, chemistry not given here) [CR005303]”: 0.56%, 59.28% and 58.72%.
The matching figures for “CCUCUGCAUGCUCAUGGAAU (tested as dual guide RNA, chemistry not given here) [CR003370]”: 0.12%, 2.52% and 2.40%.
